According to EP4737451A1 (Dong Wha Pharm. Co., Ltd., priority 2023, dated 2025):

Experiments:
[1] = molecular target: T1, IRAK4 enzyme (Homo sapiens, UniProt Q9NWZ3); test: IRAK4 enzyme activity inhibition (ADP-Glo, Promega kit); type: biochemical; details: for inhibition at 0.1 µM: test compound 0.1 uM; for inhibition at 1 µM: test compound 1 uM
T1 construct: purchased Promega V2621
T1 sequence (Q9NWZ3 1-460): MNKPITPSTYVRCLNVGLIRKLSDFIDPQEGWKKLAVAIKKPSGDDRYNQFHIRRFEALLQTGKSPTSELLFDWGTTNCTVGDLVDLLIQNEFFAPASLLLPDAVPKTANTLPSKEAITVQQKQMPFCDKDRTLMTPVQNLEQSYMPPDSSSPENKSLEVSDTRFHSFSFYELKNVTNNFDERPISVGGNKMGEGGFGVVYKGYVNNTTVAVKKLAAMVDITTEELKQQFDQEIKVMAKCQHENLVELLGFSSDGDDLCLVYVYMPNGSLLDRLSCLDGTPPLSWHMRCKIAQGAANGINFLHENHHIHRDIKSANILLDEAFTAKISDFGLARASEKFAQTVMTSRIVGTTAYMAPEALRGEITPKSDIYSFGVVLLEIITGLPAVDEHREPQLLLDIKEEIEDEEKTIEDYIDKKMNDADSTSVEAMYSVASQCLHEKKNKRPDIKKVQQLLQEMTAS
Protocol: An experiment on IRAK4 enzyme activity inhibition of the compound of the present invention was conducted.
An IRAK4 enzyme kit (purchased from Promega, product number: V2621) was used to dilute a mixed solution between 0.1 µg/µL of myelin basic protein (MBP), which is an enzyme-reactive substrate, and 1.25 mM of ATP with a reaction buffer (40 mM Tris-HCl, pH 7.5; 20 mM MgCl2; 0.1 mg/mL BSA; 50 µM DTT) according to the instructions, so as to dispense 2 µL in a 384-well white plate, and then to add 1 µL of a test compound, which was gradient diluted starting from 1 mM, to a 384-well plate. After that, an IRAK4 enzyme was diluted with a reaction buffer to a final concentration of 5 ng/µL, then 2 µL/well was dispensed into a 384-well white plate and reacted at 37°C for 60 minutes. After completion of a reaction, an ADP-GloTM enzyme test kit (purchased from Promega, product number: V9102) was used to add 5 µL of ADP-Glo reaction reagent and cause a reaction at 37°C for 40 minutes, and then 10 µL of enzyme chromogenic reagent was added again to measure a luminescence signal using equipment for measuring absorbance (THECAN, Microplate Reader). An activity inhibition rate was calculated from a measured value, and a 50% inhibition concentration (IC50 value) was analyzed through a non-linear regression analysis based on the % inhibition for each concentration of the test compound, and is shown in Table 2.

[2] = molecular target: T2, IRAK1 enzyme (Homo sapiens, UniProt P51617); test: IRAK1 enzyme activity inhibition (ADP-Glo, Promega kit); type: biochemical; details: for inhibition at 0.1 µM: test compound 0.1 uM; for inhibition at 1 µM: test compound 1 uM
T2 construct: purchased Promega VA7477
Protocol: An experiment on IRAK1 enzyme activity inhibition of the compound of the present invention was conducted.
An IRAK1 enzyme kit (purchased from Promega, product number: VA7477) was used to dilute a mixed solution between 0.1 µg/µL of protein kinase B (AKT), which is an enzyme-reactive substrate, and 1.25 mM of ATP with a reaction buffer (40 mM Tris-HCl, pH 7.5; 20 mM MgCl2; 0.1 mg/mL BSA; 50 µM DTT) according to the instructions, so as to dispense 2 µL in a 384-well white plate, and then to add 1 µL of a test compound, which was gradient diluted starting from 1 mM, to a 384-well white plate. After that, an IRAK1 enzyme was diluted with a reaction buffer to a final concentration of 5 ng/µL, then 2 µL/well was dispensed into a 384-well white plate and reacted at 37°C for 60 minutes. After completion of a reaction, an ADP-GloTM enzyme test kit (purchased from Promega, product number: V9102) was used to add 5 µL of ADP-Glo reaction reagent and cause a reaction at 37°C for 40 minutes, and then 10 µL of enzyme chromogenic reagent was added again to measure a luminescence signal using equipment for measuring absorbance (THECAN, Microplate Reader). An activity inhibition rate was calculated from a measured value, and a 50% inhibition concentration (IC50 value) was analyzed through a non-linear regression analysis based on the % inhibition for each concentration of the test compound, and is shown in Table 3.

T2 sequence (P51617 whole entry): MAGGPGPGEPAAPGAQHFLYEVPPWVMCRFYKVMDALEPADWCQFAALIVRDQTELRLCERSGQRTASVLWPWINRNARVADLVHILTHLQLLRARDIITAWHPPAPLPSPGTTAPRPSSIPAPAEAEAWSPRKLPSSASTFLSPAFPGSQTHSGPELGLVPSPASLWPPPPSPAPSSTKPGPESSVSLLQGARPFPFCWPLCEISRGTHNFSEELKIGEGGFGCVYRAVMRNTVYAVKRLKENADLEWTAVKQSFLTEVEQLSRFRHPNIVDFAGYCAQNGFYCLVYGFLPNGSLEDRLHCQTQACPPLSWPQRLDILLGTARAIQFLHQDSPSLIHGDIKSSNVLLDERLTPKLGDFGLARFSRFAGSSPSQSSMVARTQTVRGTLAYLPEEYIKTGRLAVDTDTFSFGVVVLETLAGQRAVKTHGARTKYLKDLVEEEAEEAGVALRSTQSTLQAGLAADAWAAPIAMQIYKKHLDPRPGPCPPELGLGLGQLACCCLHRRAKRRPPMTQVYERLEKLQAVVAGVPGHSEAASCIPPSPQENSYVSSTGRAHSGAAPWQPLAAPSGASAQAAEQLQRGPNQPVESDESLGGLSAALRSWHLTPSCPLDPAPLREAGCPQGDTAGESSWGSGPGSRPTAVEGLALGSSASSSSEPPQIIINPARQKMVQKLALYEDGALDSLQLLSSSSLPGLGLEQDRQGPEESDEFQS

Compound | IC50 [1] | inhibition at 0.1 µM [1] | inhibition at 0.1 µM [2] | inhibition at 1 µM [2] | inhibition at 1 µM [1]
CC(C)(O)CCn1cc2cc(NC(=O)c3cccc(S(N)(=O)=O)c3)c(N3CCC(O)CC3)cc2n1 [Example 31, N-(2-(3-hydroxy-3-methylbutyl)-6-(4-hydroxypiperidin-1-yl)-2H-indazol-5-yl)-3-sulfamoylbenzamide] | 13.4 nM | 88% | 30.6% | 66.7% | –
CC(C)(O)CCn1cc2cc(NC(=O)c3cccc([N+](=O)[O-])c3)c(-c3cccc(C(=O)N4CCOCC4)c3)cc2n1 [Example 35, N-(2-(3-hydroxy-3-methylbutyl)-6-(3-(morpholine-4-carbonyl)phenyl)-2H-indazol-5-yl)-3-nitrobenzamide] | – | 64.6% | 33.1% | 60.8% | –
CC(C)(O)CCn1cc2cc(NC(=O)c3cccc(-c4cn[nH]c4)n3)c(N3CCOCC3)cc2n1 [Example 20, N-(2-(3-hydroxy-3-methylbutyl)-6-morpholino-2H-indazol-5-yl)-6-(1H-pyrazol-4-yl)picolinamide] | 15.5 nM | 89.6% | 16.5% | 57% | –
O=C(Nc1cc2cn(CCN3CCOCC3)nc2cc1-c1ccc(F)cc1)c1cccc([N+](=O)[O-])c1 [Example 34, N-(6-(4-fluorophenyl)-2-(2-morpholinoethyl)-2H-indazol-5-yl)-3-nitrobenzamide] | – | 69.4% | 4.6% | 17.4% | 88.2%
CC(C)(O)CCn1cc2cc(NC(=O)c3cccc([N+](=O)[O-])c3)c(-c3ccc(C(=O)NCC(N)=O)cc3)cc2n1 [Example 43, N-(6-(4-((2-amino-2-oxoethyl)carbamoyl)phenyl)-2-(3-hydroxy-3-methylbutyl)-2H-indazol-5-yl)-3-nitrobenzamide] | – | 63% | 1.7% | – | –
CN(C)c1cc2nn(CCC(C)(C)O)cc2cc1NC(=O)c1cccc([N+](=O)[O-])c1 [Example 38, N-(6-(dimethylamino)-2-(3-hydroxy-3-methylbutyl)-2H-indazol-5-yl)-3-nitrobenzamide] | 5.1 nM | 87.9% | 4.6% | – | –
CC(C)(O)CCn1cc2cc(NC(=O)c3cccc([N+](=O)[O-])c3)c(N3CCSCC3)cc2n1 [Example 40, N-(2-(3-hydroxy-3-methylbutyl)-6-thiomorpholino-2H-indazol-5-yl)-3-nitrobenzamide] | – | 69.7% | 6.5% | 11.2% | –
CC(C)(O)CCn1cc2cc(NC(=O)c3cccc([N+](=O)[O-])c3)c(-c3ccc(N4CCOCC4)cc3)cc2n1 [Example 37, N-(2-(3-hydroxy-3-methylbutyl)-6-(4-morpholinophenyl)-2H-indazol-5-yl)-3-nitrobenzamide] | – | 52.2% | 26.3% | 31% | –
CC(C)(O)CCn1cc2cc(NC(=O)c3cccc([N+](=O)[O-])c3)c(N3CCC(C(C)(C)O)CC3)cc2n1 [Example 30, N-(2-(3-hydroxy-3-methylbutyl)-6-(4-(2-hydroxypropan-2-yl)piperidin-1-yl)-2H-indazol-5-yl)-3-nitrobenzamide] | 0.88 nM | 82.8% | 8.6% | – | –
COC(=O)CCNC(=O)c1cncc(-c2cc3nn(CCC(C)(C)O)cc3cc2NC(=O)c2cccc(S(N)(=O)=O)c2)c1 [Example 48, Methyl 3-(5-(2-(3-hydroxy-3-methylbutyl)-5-(3-sulfamoylbenzamido)-2H-indazol-6-yl)nicotinamido)propanoate] | – | 56.7% | 39.7% | – | –
CC(C)(O)CCn1cc2cc(NC(=O)c3cccc([N+](=O)[O-])c3)cc(-c3ccoc3)c2n1 [Example 16, N-(7-(furan-3-yl)-2-(3-hydroxy-3-methylbutyl)-2H-indazol-5-yl)-3-nitrobenzamide] | – | 48.8% | – | 17.2% | 71%

The remaining lines, values ahead:

IC50 [1] | inhibition at 0.1 µM [1] | inhibition at 0.1 µM [2] | inhibition at 1 µM [2] | inhibition at 1 µM [1] | Compound
– | 19.1% | 42.4% | – | – | CN(C)CCn1cc2cc(NC(=O)c3cccc(C(N)=O)c3)c(-c3ccsc3)cc2n1 [Example 1, N-(2-(2-(dimethylamino)ethyl)-6-(thiophen-3-yl)-2H-indazol-5-yl)isophthalamide]
– | 48.8% | 0% | – | – | CNC(=O)[C@@H](C)NC(=O)c1cncc(-c2cc3nn(CCC(C)(C)O)cc3cc2NC(=O)c2cccc(S(N)(=O)=O)c2)c1 [Example 51, (R)-5-(2-(3-hydroxy-3-methylbutyl)-5-(3-sulfamoylbenzamido)-2H-indazol-6-yl)-N-(1-(methylamino)-1-oxopropan-2-yl)nicotinamide]
– | 18.6% | 1.3% | 0% | 19.2% | CS(=O)(=O)CCn1cc2cc(NC(=O)c3cccc([N+](=O)[O-])c3)c(N3CCOCC3)cc2n1 [Example 13, N-(2-(2-(methylsulfonyl)ethyl)-6-morpholino-2H-indazol-5-yl)-3-nitrobenzamide]
22.1 nM | 71.3% | 24% | 39.3% | 95.6% | CC(C)(O)CCn1cc2cc(NC(=O)c3cccc(C(N)=O)c3)c(N3CCSCC3)cc2n1 [Example 33, N-(2-(3-hydroxy-3-methylbutyl)-6-thiomorpholino-2H-indazol-5-yl)isophthalamide]
78.5 nM | 81.3% | 24.9% | 54.6% | – | CC(C)(O)CCn1cc2cc(NC(=O)c3cccc(C(N)=O)c3)c(N3CCOCC3)cc2n1 [Example 25, N-(2-(3-hydroxy-3-methylbutyl)-6-morpholino-2H-indazol-5-yl)isophthalamide]
– | 21.1% | – | 0% | 35.6% | CS(=O)(=O)CCn1cc2cc(NC(=O)c3cccc(S(=O)(=O)N4CCOCC4)c3)c(N3CCOCC3)cc2n1 [Example 14, N-(2-(2-(methylsulfonyl)ethyl)-6-morpholino-2H-indazol-5-yl)-3-(morpholinosulfonyl)benzamide]
31.7 nM | 84.7% | – | 38.7% | 90.1% | O=C(Nc1cc2cn(CCN3CCOCC3)nc2cc1N1CCOCC1)c1cccc([N+](=O)[O-])c1 [Example 19, N-(6-morpholino-2-(2-morpholinoethyl)-2H-indazol-5-yl)-3-nitrobenzamide]
– | 2.7% | 13.9% | – | – | CS(=O)(=O)CCn1cc2cc(NC(=O)c3cccc(S(N)(=O)=O)c3)c(N3CCOCC3)cc2n1 [Example 53, N-(2-(2-(methylsulfonyl)ethyl)-6-morpholino-2H-indazol-5-yl)-3-sulfamoylbenzamide]
– | 55.1% | – | 9.6% | 68.8% | CC(C)(O)Cn1cc2cc(NC(=O)c3cccc([N+](=O)[O-])c3)c(-c3ccsc3)cc2n1 [Example 50, N-(2-(2-hydroxy-2-methylpropyl)-6-(thiophen-3-yl)-2H-indazol-5-yl)-3-nitrobenzamide]
– | 55.4% | 27.7% | 31.6% | – | CC(C)(O)CCn1cc2cc(NC(=O)c3cccc(C(N)=O)c3)c(-c3ccc(C(=O)NCc4ccoc4)cc3)cc2n1 [Example 49, N-(6-(4-((furan-3-ylmethyl)carbamoyl)phenyl)-2-(3-hydroxy-3-methylbutyl)-2H-indazol-5-yl)isophthalamide]
